Results taken from patent US6737383B1, “Herbicidal oxadiazolidines” (priority 1999, dated 2004).

Columns and labels:
[1] = system: bedstraw; assay: Test B pre/postemergence bedstraw; assay type: in vivo, Galium aparine; conditions: Preemergence; for Bedstraw plant response rating: scale 0 to 10, 0 is no effect, 10 is complete control
Outline: (§1)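 Response is a visual 0-to-10 score relative to untreated plants, where 0 means no effect and 10 means complete control, taken twelve to sixteen days after application. Treatments went onto soil at planting and onto foliage of 1- to 4-leaf plants, using a surfactant-containing non-phytotoxic solvent.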

[2] = system: blackgrass; assay: Test B pre/postemergence blackgrass; assay type: in vivo, Alopecurus myosuroides
Outline: as §1

[3] = system: surinam grass; assay: Test B pre/postemergence surinam grass; assay type: in vivo, Brachiaria decumbens
Outline: as §1

[4] = system: cocklebur; assay: Test B pre/postemergence cocklebur; assay type: in vivo, Xanthium strumarium
Outline: as §1

[5] = system: corn; assay: Test B pre/postemergence corn; assay type: in vivo, Zea mays
Outline: as §1

[6] = system: crabgrass; assay: Test B pre/postemergence crabgrass; assay type: in vivo, Digitaria sanguinalis
Outline: as §1

[7] = system: giant foxtail; assay: Test B pre/postemergence giant foxtail; assay type: in vivo, Setaria faberii
Outline: as §1

[8] = system: morningglory; assay: Test B pre/postemergence morningglory; assay type: in vivo, Ipomoea hederacea
Outline: as §1

[9] = system: pigweed; assay: Test B pre/postemergence pigweed; assay type: in vivo, Amaranthus retroflexus
Outline: as §1

[10] = system: rape; assay: Test B pre/postemergence rape; assay type: in vivo, Brassica napus
Outline: as §1

[11] = system: soybean; assay: Test B pre/postemergence soybean; assay type: in vivo, Glycine max
Outline: as §1

[12] = system: sugar beet; assay: Test B pre/postemergence sugar beet; assay type: in vivo, Beta vulgaris
Outline: as §1

[13] = system: velvetleaf; assay: Test B pre/postemergence velvetleaf; assay type: in vivo, Abutilon theophrasti
Outline: as §1

[14] = system: wheat; assay: Test B pre/postemergence wheat; assay type: in vivo, Triticum aestivum
Outline: as §1

[15] = system: wild oat; assay: Test B pre/postemergence wild oat; assay type: in vivo, Avena fatua
Outline: as §1

[16] = system: purple nutsedge; assay: Test B pre/postemergence purple nutsedge; assay type: in vivo, Cyperus rotundus
Outline: as §1

[17] = Postemergence, Rate 62 g/ha, scale of 0 to 10, 0 is no effect, 10 is complete control
[18] = Postemergence, Rate 125 g/ha, scale 0 to 10, 0 is no effect, 10 is complete control
[19] = Postemergence, Rate 250 g/ha, scale 0 to 10
[20] = Postemergence, Rate 500 g/ha, scale 0 to 10, 0 is no effect, 10 is complete control
[21] = Preemergence, Rate 62 g/ha, scale of 0 to 10 where 0 is no effect and 10 is complete control
[22] = Preemergence, Rate 125 g/ha, scale 0 to 10, 0 is no effect, 10 is complete control
[23] = Preemergence, Rate 250 g/ha, scale 0 to 10, 0 is no effect, 10 is complete control
[24] = Preemergence, Rate 500 g/ha, scale of 0 to 10 where 0 is no effect and 10 is complete control

## Cc1noc(C)c1Cn1c(=O)on(C(=O)N(c2ccc(F)cc2F)C(C)C)c1=O [Compound 510]
[1]; Rate 62 g/ha, scale of 0 to 10 where 0 is no effect and 10 is complete control
  Plant response rating, Bedstraw: 0
[1]; Rate 125 g/ha
  Bedstraw plant response rating: 0
[1]; Rate 250 g/ha
  Bedstraw plant response rating: 0
[1]; Rate 500 g/ha
  Bedstraw plant response rating: 4
[2]; [17]
  Blackgrass plant response rating: 5
[2]; [18]
  Blackgrass plant response rating: 5
[2]; [19]
  Blackgrass plant response rating: 5
[2]; [20]
  Plant response rating, Blackgrass: 6
[2]; [21]
  Plant response rating, Blackgrass: 6
[2]; [22]
  Blackgrass plant response rating: 6
[2]; [23]
  Blackgrass plant response rating: 7
[2]; [24]
  Blackgrass plant response rating: 8
[3]; [17]
  B. signalgrass plant response rating: 2
[3]; [18]
  B. signalgrass plant response rating: 4
[3]; Postemergence, Rate 250 g/ha, scale 0 to 10, 0 no effect, 10 complete control
  B. signalgrass plant response rating: 4
[3]; [20]
  Plant response rating, B. signalgrass: 6
[3]; [21]
  Plant response rating, B. signalgrass: 7
[3]; [22]
  B. signalgrass plant response rating: 7
[3]; [23]
  B. signalgrass plant response rating: 8
[3]; Preemergence, Rate 500 g/ha, scale 0 to 10, 0 is no effect, 10 is complete control
  B. signalgrass plant response rating: 9
[4]; [17]
  Cocklebur plant response rating: 3
[4]; [18]
  Cocklebur plant response rating: 3
[4]; [19]
  Cocklebur plant response rating: 4
[4]; [20]
  Plant response rating, Cocklebur: 4
[4]; [21]
  Plant response rating, Cocklebur: 0
[4]; [22]
  Cocklebur plant response rating: 0
[4]; [24]
  Cocklebur plant response rating: 0
[5]; [17]
  Corn plant response rating: 0
[5]; [18]
  Corn plant response rating: 0
[5]; [19]
  Corn plant response rating: 0
[5]; [20]
  Plant response rating, Corn: 0
[5]; [21]
  Plant response rating, Corn: 0
[5]; [22]
  Corn plant response rating: 0
[5]; [24]
  Corn plant response rating: 5
[6]; [17]
  Crabgrass plant response rating: 3
[6]; [18]
  Crabgrass plant response rating: 8
[6]; [19]
  Crabgrass plant response rating: 8
[6]; [20]
  Plant response rating, Crabgrass: 9
[6]; [21]
  Plant response rating, Crabgrass: 5
[6]; [22]
  Crabgrass plant response rating: 9
[6]; [24]
  Crabgrass plant response rating: 9
[7]; [17]
  Giant foxtail plant response rating: 4
[7]; [18]
  Giant foxtail plant response rating: 6
[7]; [20]
  Plant response rating, Giant foxtail: 9
[7]; [21]
  Plant response rating, Giant foxtail: 9
[7]; [22]
  Giant foxtail plant response rating: 9
[7]; [24]
  Giant foxtail plant response rating: 10
[8]; [17]
  Morningglory plant response rating: 4
[8]; [18]
  Morningglory plant response rating: 5
[8]; [20]
  Plant response rating, Morningglory: 6
[8]; [21]
  Plant response rating, Morningglory: 0
[8]; [22]
  Morningglory plant response rating: 0
[8]; [24]
  Morningglory plant response rating: 5
[9]; [17]
  Redroot pigweed plant response rating: 7
[9]; [18]
  Redroot pigweed plant response rating: 7
[9]; [21]
  Plant response rating, Redroot pigweed: 7
[9]; [22]
  Redroot pigweed plant response rating: 9
[9]; [24]
  Redroot pigweed plant response rating: 10
[10]; [17]
  Rape plant response rating: 1
[10]; [18]
  Rape plant response rating: 4
[10]; [20]
  Plant response rating, Rape: 9
[10]; [21]
  Plant response rating, Rape: 2
[10]; [22]
  Rape plant response rating: 5
[10]; [24]
  Rape plant response rating: 9
[11]; [17]
  Soybean plant response rating: 4
[11]; [18]
  Soybean plant response rating: 7
[11]; [20]
  Plant response rating, Soybean: 8
[11]; [21]
  Plant response rating, Soybean: 0
[11]; [22]
  Soybean plant response rating: 0
[11]; [24]
  Soybean plant response rating: 0
[12]; [17]
  Sugarbeets plant response rating: 2
[12]; [18]
  Sugarbeets plant response rating: 4
[12]; [20]
  Plant response rating, Sugarbeets: 8
[12]; [21]
  Plant response rating, Sugarbeets: 0
[12]; [22]
  Sugarbeets plant response rating: 0
[12]; [24]
  Sugarbeets plant response rating: 7
[13]; [17]
  Velvetleaf plant response rating: 4
[13]; [18]
  Velvetleaf plant response rating: 4
[13]; [20]
  Plant response rating, Velvetleaf: 7
[13]; [21]
  Plant response rating, Velvetleaf: 1
[13]; [22]
  Velvetleaf plant response rating: 2
[13]; [24]
  Velvetleaf plant response rating: 6
[14]; [17]
  Wheat plant response rating: 0
[14]; [18]
  Wheat plant response rating: 0
[14]; [20]
  Plant response rating, Wheat: 3
[14]; [21]
  Plant response rating, Wheat: 0
[14]; [22]
  Wheat plant response rating: 0
[14]; [24]
  Wheat plant response rating: 0
[15]; [17]
  Wild oats plant response rating: 0
[15]; [18]
  Wild oats plant response rating: 0
[15]; [20]
  Plant response rating, Wild oats: 5
[15]; [21]
  Plant response rating, Wild oats: 4
[15]; [22]
  Wild oats plant response rating: 6
[15]; [24]
  Wild oats plant response rating: 7
[16]; [18]
  Nutsedge plant response rating: 0
[16]; [20]
  Plant response rating, Nutsedge: 0
[16]; [21]
  Plant response rating, Nutsedge: 0
[16]; [22]
  Nutsedge plant response rating: 0
[16]; [24]
  Nutsedge plant response rating: 0
